Common to all, as to type: in vivo
Data set [1] concerns Oryza sativa (ORYSA). Description: Post-emergence action, greenhouse pot test, visual scoring: ORYSA. The protocol:
(§1) Seeds or rhizome pieces of mono- and dicotyledonous harmful and useful plants were placed in peat pots (diameter 4 cm) filled with sandy loam and then covered with soil. The pots were kept in a greenhouse under optimum conditions. In addition, harmful plants encountered in paddy rice cultivation were cultivated in pots with a water level 2 cm above the soil surface.
(§2) About three weeks after the start of the cultivation, the test plants were treated at the 2- to 3-leaf stage. The herbicides, formulated as powder or liquid concentrates, were, either alone or in the combinations according to the invention, sprayed in various dosages on to the green parts of the plants using an application rate of 600 l of water/ha (converted). For further cultivation of the plants, the pots were then again kept under optimum conditions in a greenhouse.
(§3) The visual scoring of the herbicidal effects was carried out in intervals up to 21 days after the treatment. Scoring was carried out in percent in comparison to the untreated control plants. 0%=no herbicidal activity, 100%=complete herbicidal activity=complete kill.
(§4) The percentages from the treatments with the herbicides alone (=individual application) and with the combinations according to the invention (=mixtures) were employed to calculate interactions using the method of Colby. When the observed efficacies of the mixtures exceed the formal sum of the values of the tests with individual applications, they also exceed the expected value according to Colby, which is calculated using the formula below (cf. S. R. Colby; in Weeds 15 (1967) pp. 20 to 22):
(§5) Here: • A, B=activity of components A and B in percent at a dosage of a and b g of ai/ha (=gramm of active substance per hectare), respectively. • E=expected value in % at a dosage of a+b g of ai/ha.
(§6) The combinations according to the invention of herbicides from group (A) with herbicides from group (B) were tested on a broad spectrum of important harmful plants (weed grasses, broad-leaved weeds/Cyperaceae) and useful plants: Triticum aestivum (TRZAS), Stellaria media (STEME), Lolium multiflorum (LOLMU), Veronica persica (VERPE), Alopecurus myosuroides (ALOMY), Matricaria inodora (MATIN), Brassica napus (BRSNW), Viola tricolor (VIOTR), Avena fatua (AVEFA), Amaranthus retroflexus (AMARE), Zea mays (ZEAMX), Pharbitis purpurea (PHBPU), Setaria viridis (SETVI), Fallopia (ex Polygonum) convolvulus (POLCO), Echinochloa crusgaffi (ECHCG), Abuthilon theophrasti (ABUTH), Cyperus esculentus (CYPES), Oryza sativa (ORYSA).
(§7) Of particular interest are the results shown in the tables (Tab.) below, where the following key is used: • (1) EPPO code (former Bayer code) for the treated plant (see above) • (2) Time of scoring: DAT (days after treatment) • (3) Component A tested (identifying number) • (4) Component B tested (identifying number) • (5) Dosage component A [g of ai/ha] • (6) Dosage component B [g of ai/ha] • (7) % activity found • (8) E value (calculated according to Colby; see above) • (9) Comments: “SYNERGY” =synergistic interaction (E value<% activity found); “SAFENING”=safener action on useful plant (E value>% activity found)

The test system of data set [2] is Triticum aestivum (TRZAS). As to the kind of experiment: Post-emergence action, greenhouse pot test, visual scoring: TRZAS. The protocol: as §1, §2, §3, §4, §5, §6, §7
For data set [3], the system named is Cyperus esculentus (CYPES). As to the kind of experiment: Post-emergence action, greenhouse pot test, visual scoring: CYPES. The conditions noted are these: 21 DAT. The protocol:
as §1, §2, §3, §4, §5

For data set [4], the system named is Alopecurus myosuroides (ALOMY). Description: Post-emergence action, greenhouse pot test, visual scoring: ALOMY. The following applies: Alopecurus myosuroides, post-emergence, read-out: % activity found; for pest or weed control at 40 g/ha: B 40 g of ai/ha. The protocol: as §1, §2, §3, §4, §5
Data set [5] relates to Lolium multiflorum (LOLMU). As to the kind of experiment: Post-emergence action, greenhouse pot test, visual scoring: LOLMU. The method, then:
as §1, §2, §3, §4, §5, §6, §7

Data set [6] relates to Setaria viridis (SETVI). Description: Post-emergence action, greenhouse pot test, visual scoring: SETVI. The conditions noted are these: Setaria viridis, post-emergence, 504 h; 21 DAT, B 40 g of ai/ha; read-out: % activity found. The method, then:
as §1, §2, §3, §4, §5, §6, §7

Data set [7] deals with Zea mays (ZEAMX). As to the kind of experiment: Post-emergence action, greenhouse pot test, visual scoring: ZEAMX. The following applies: for plant injury at 40 g/ha: B 40 g of ai/ha. The protocol:
as §1, §2, §3, §4, §5, §6, §7

In data set [8] the test system is Pharbitis purpurea (PHBPU). Description: Post-emergence action, greenhouse pot test, visual scoring: PHBPU. The following applies: 21 DAT. The method, then: as §1, §2, §3, §4, §5, §6, §7
Data set [9] concerns Avena fatua (AVEFA). Description: Post-emergence action, greenhouse pot test, visual scoring: AVEFA. The following applies: 21 DAT. The protocol: as §1, §2, §3, §4, §5, §6, §7
Data set [10] deals with Viola tricolor (VIOTR). As to the kind of experiment: Post-emergence action, greenhouse pot test, visual scoring: VIOTR. The following applies: rate (6) 2. The method, then:
as §1, §2, §3, §4, §5, §6, §7

Data set [11] relates to Fallopia (ex Polygonum) convolvulus (POLCO). As to the kind of experiment: Post-emergence action, greenhouse pot test, visual scoring: POLCO. The following applies: 21 DAT. The protocol:
as §1, §2, §3, §4, §5, §6, §7

In data set [12] the test system is Veronica persica (VERPE). Description: Post-emergence action, greenhouse pot test, visual scoring: VERPE. The following applies: 21 DAT. The protocol:
as §1, §2, §3, §4, §5, §6, §7

Molecules are shown by their SMILES. Like-named read-outs stand apart in the source and are kept apart here.

Regarding `O=C(Nc1ccc(F)cc1F)c1cccnc1Oc1cccc(C(F)(F)F)c1` [B3-1, N-(2,4-difluorophenyl)-2-[3-(trifluoromethyl)phenoxy]-3-pyridinecarboxamide], the plant injury at 40 g/ha in data set [1] (Oryza sativa, post-emergence, 504 h, 21 DAT, B 40 g of ai/ha, read-out: % activity found) was found to be 30%; in [2] (Triticum aestivum, post-emergence, 240 h, 10 DAT, B 40 g of ai/ha, read-out: % activity found), 20%; in data set [7] (Zea mays, post-emergence, 240 h, 10 DAT, read-out: % activity found), 40%; in data set [7] (Zea mays, post-emergence, 504 h, 21 DAT, read-out: % activity found), 30%. Further, the plant injury at 120 g/ha in data set [1] (Oryza sativa, post-emergence, 504 h, 21 DAT, B 120 g of ai/ha, read-out: % activity found) amounted to 50%; in [7] (Zea mays, post-emergence, 240 h, 10 DAT, B 120 g of ai/ha, read-out: % activity found) it was 40%. The “% activity found” value in data set [3] (B 40 g of ai/ha) is given as 0%; in data set [3] (B 120 g of ai/ha), 0%; in data set [5] (21 DAT, B 120 g of ai/ha), 30%. For the same molecule, the pest or weed control at 40 g/ha amounted to 40% in data set [4] (240 h, 10 DAT); 10% in data set [4] (504 h, 21 DAT); 60% in [6]. For the same molecule, the pest or weed control at 120 g/ha in [4] (504 h, 21 DAT, B 120 g of ai/ha) turned out to be 20%.
As for `COc1cnc(OC)n2nc(NS(=O)(=O)c3c(OCC(F)F)cccc3C(F)(F)F)nc12` [B9-6, 2-(2,2-difluoroethoxy)-N-(5,8-dimethoxy[1,2,4]triazolo[1,5-c]pyrimidin-2-yl)-6-(trifluoromethyl)benzenesulfonamide], the “(7) % activity found” value in data set [8] (rate (6) 5) came out at 10%; in data set [8] (rate (6) 15), 30%; in [2] (10 DAT, rate (6) 15) it was 10%; in data set [2] (21 DAT, rate (6) 15), 0%; in [5] (21 DAT, rate (6) 5), 20%; in data set [7] (10 DAT, rate (6) 5) it was 0%. For the same molecule, the “(7) % activity found” value in data set [7] (10 DAT, rate (6) 15) amounted to 30%.
With `COC(=O)c1ccc(I)cc1S(=O)(=O)NC(=O)Nc1nc(C)nc(OC)n1.[Na]` [B7-16, methyl 4-iodo-2-[[[[(4-methoxy-6-methyl-1,3,5-triazin-2-yl)amino]carbonyl]amino]sulfonyl]benzoate sodium salt], the “(7) % activity found” value is recorded as 90% in [1] (10 DAT, rate (6) 2); 70% in data set [1] (21 DAT, rate (6) 2); 10% in data set [9] (rate (6) 2); 70% in data set [10] (10 DAT); 90% in data set [10] (21 DAT); 40% in [2] (10 DAT, rate (6) 2). Further, the “(7) % activity found” value is reported as 20% in data set [2] (21 DAT, rate (6) 2); 60% in [2] (21 DAT, rate (6) 6); 30% in data set [7] (10 DAT, rate (6) 2); 20% in data set [7] (10 DAT, rate (6) 6); 0% in [7] (21 DAT, rate (6) 2).
Consider `COC(=O)c1ccc(CNS(C)(=O)=O)cc1S(=O)(=O)NC(=O)Nc1nc(OC)cc(OC)n1` [B7-17, methyl 2-[[[[(4,6-dimethoxy-2-pyrimidinyl)amino]carbonyl]amino]sulfonyl]-4-[[(methylsulfonyl)amino]methyl]benzoate], for which the “(7) % activity found” value in data set [1] (10 DAT, rate (6) 6) stood at 90%; in [9] (rate (6) 2), 20%; in [9] (rate (6) 6), 70%; in data set [11] (rate (6) 2) it was 40%; in [11] (rate (6) 6), 50%; in data set [2] (10 DAT, rate (6) 2), 40%. Further, the “(7) % activity found” value in data set [2] (10 DAT, rate (6) 6) is reported as 60%; in data set [2] (21 DAT, rate (6) 2), 20%; in data set [2] (21 DAT, rate (6) 6) it was 70%; in data set [7] (10 DAT, rate (6) 6), 40%.
As to `COC(=O)c1csc(C)c1S(=O)(=O)NC(=O)n1nc(OC)n(C)c1=O` [B8-3, methyl 4-[[[(4,5-dihydro-3-methoxy-4-methyl-5-oxo-1H-1,2,4-triazol-1-yl)carbonyl]amino]sulfonyl]-5-methyl-3-thiophenecarboxylate], the “(7) % activity found” value in data set [1] (10 DAT, rate (6) 0.7) is given as 50%; in [1] (10 DAT, rate (6) 2) it was 70%; in data set [1] (21 DAT, rate (6) 2), 40%; in data set [9] (rate (6) 0.7) it was 50%; in [12] (rate (6) 2) it was 40%; in [2] (21 DAT, rate (6) 2) it was 30%. Further, the “(7) % activity found” value in data set [3] (rate (6) 0.7) is recorded as 0%; in data set [7] (21 DAT, rate (6) 2) it was 20%.
For the molecule `COCCOc1ccccc1S(=O)(=O)NC(=O)Nc1nc(OC)nc(OC)n1` [B7-6, N-[[(4,6-dimethoxy-1,3,5-triazin-2-yl)amino]carbonyl]-2-(2-methoxyethoxy)benzenesulfonamide], the “% activity found” value in data set [12] (dose (6) 7) stood at 0%; in data set [12] (dose (6) 21), 0%; in data set [3] (dose (6) 21), 0%; in data set [5] (10 DAT, dose (6) 7), 40%; in data set [5] (21 DAT, dose (6) 7) it was 10%.
